From article PMC3883354 (Bioorganic & medicinal chemistry, 2013)
Read-outs that look alike come from different tables or passages of the source.

Key:
human GV sPLA2 [1] = molecular target: T1, human GV sPLA2 (Homo sapiens, UniProt P39877); conditions: 0.091 mole fraction inhibitor; cited from earlier work
T1 sequence (P39877 21-138): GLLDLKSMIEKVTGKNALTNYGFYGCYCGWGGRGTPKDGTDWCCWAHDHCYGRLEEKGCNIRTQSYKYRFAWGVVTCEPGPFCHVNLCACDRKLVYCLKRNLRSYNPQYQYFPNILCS

human GIVA cPLA2 [2] = molecular target: T2, human GIVA cPLA2 (Homo sapiens, UniProt P47712); conditions: 0.091 mole fraction inhibitor; cited from earlier work
T2 sequence (P47712 1-749): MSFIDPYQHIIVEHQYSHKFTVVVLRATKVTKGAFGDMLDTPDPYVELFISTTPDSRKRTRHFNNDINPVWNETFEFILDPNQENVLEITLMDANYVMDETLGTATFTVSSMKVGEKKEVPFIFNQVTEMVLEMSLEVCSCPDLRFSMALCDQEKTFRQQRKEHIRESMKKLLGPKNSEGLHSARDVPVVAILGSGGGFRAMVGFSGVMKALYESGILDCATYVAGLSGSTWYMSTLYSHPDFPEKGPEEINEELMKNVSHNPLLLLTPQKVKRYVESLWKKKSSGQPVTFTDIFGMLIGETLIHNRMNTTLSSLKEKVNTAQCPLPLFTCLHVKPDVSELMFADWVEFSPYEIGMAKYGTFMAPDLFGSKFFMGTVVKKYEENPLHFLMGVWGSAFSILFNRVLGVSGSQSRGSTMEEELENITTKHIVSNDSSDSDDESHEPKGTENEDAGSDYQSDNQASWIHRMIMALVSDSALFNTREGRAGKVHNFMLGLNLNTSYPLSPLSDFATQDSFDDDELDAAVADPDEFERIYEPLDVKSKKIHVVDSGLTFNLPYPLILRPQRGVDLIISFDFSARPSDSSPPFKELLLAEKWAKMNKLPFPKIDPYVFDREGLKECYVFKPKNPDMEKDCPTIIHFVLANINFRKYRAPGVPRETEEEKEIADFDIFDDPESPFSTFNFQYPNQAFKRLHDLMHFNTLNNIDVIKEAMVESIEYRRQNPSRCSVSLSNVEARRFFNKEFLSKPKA

human GVIA iPLA2 = molecular target: T3, human GVIA iPLA2 (Homo sapiens, UniProt O60733); conditions: cited from earlier work
T3 sequence (O60733 1-806): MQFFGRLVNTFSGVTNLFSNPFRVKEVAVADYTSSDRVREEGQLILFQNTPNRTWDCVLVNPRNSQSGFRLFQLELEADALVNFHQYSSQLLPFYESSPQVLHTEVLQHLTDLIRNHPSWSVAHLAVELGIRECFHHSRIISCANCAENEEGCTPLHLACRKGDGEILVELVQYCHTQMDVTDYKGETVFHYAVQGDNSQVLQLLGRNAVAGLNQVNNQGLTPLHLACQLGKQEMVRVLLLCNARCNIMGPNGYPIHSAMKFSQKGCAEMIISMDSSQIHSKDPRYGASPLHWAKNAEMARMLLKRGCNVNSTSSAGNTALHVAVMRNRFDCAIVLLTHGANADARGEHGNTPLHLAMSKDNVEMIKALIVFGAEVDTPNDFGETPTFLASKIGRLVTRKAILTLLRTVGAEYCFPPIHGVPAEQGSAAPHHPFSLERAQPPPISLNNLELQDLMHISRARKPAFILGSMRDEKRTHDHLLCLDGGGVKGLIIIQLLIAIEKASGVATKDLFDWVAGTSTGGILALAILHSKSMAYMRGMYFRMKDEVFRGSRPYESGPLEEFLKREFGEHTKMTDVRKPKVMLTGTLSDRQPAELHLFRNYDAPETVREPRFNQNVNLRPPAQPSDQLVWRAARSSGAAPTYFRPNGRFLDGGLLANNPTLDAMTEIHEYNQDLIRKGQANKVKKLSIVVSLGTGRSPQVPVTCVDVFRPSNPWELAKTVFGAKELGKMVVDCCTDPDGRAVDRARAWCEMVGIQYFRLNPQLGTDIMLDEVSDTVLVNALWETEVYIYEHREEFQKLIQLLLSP

human GIVA cPLA2 [3] = molecular target: T2, human GIVA cPLA2; test: mixed micelle-based modified Dole assay, GIVA cPLA2 inhibition; format: biochemical; conditions: 0.091 mole fraction inhibitor in mixed micelles; n = 3; listed as GK187
human GV sPLA2 [4] = molecular target: T1, human GV sPLA2; test: mixed micelle-based modified Dole assay, GV sPLA2 inhibition; format: biochemical; conditions: 0.091 mole fraction inhibitor in mixed micelles; n = 3

Structure (SMILES): O=C(CCCCc1ccccc1)C(F)(F)C(F)(F)F [FKGK11]
- GV sPLA2 % Inhibition at 0.091 (human GV sPLA2 [1]): 28.0%
- GIVA cPLA2 % Inhibition at 0.091 (human GIVA cPLA2 [2]): N.D. (N.D. signifies compounds with less than 25% inhibition (or no detectable inhibition))
- GVIA iPLA2 % Inhibition at 0.091 (human GVIA iPLA2; 0.091 mole fraction inhibitor): 99.4%
- GVIA iPLA2 XI(50) (human GVIA iPLA2; mole fraction of inhibitor for 50% inhibition): 0.0014 ± 0.0001 mole fraction

Structure (SMILES): COc1ccc(CCCCC(=O)C(F)(F)C(F)(F)F)cc1 [6d, 1,1,1,2,2-Pentafluoro-7-(4-methoxyphenyl)heptan-3-one]
- GIVA cPLA2 % Inhibition at 0.091 (human GIVA cPLA2 [3]): no significant inhibition
- GV sPLA2 % Inhibition at 0.091 (human GV sPLA2 [4]): no significant inhibition
